In patent US6673768B1, “Transgenic animal models for cardiac hypertrophy and methods of use thereof (treating)” (Board of Regents, The University of Texas System, priority 1997, dated 2004):

Columns and labels:
cardiac α-actin promoter = experiment: Cardiac α-actin promoter-reporter (luciferase) activity in transfected cardiomyocytes exposed to agonists; assay type: cell-based, rat; settings: for induction of cardiac α-actin promoter-reporter activity over control cells: PE 100 μM, TGF-β1 1 ng/ml
Description: (§1) FIG. 10 presents data showing the effects of adrenoceptor agonists on promoter-reporter activities for ANF, skeletal a-actin and cardiac a-actin, and a time course of effects of DOB on ANF message levels. FIGS. 10A, B, and C are bar graphs showing luciferase reporter levels after transfection of ANF, skeletal α-actin, and cardiac a-actin, respectively, into ventricular myocardial cells, and treatment, 24 hours after transfection, with PE (100 μM), DOB (10 μM), or TGF-β1 (1 ng/ml). Values are corrected for transfection efficiency and reported as the mean±SD from at least three experiments. FIG. 10D. Ventricular myocardial cells were switched to serum-free medium. DOB was added to the medium at various time points. “Control” represents cells treated with the DOB vehicle. 24 hours after incubation, total RNA was extracted and analyzed by Northern blot. Results are representative of n=3 or greater for each time point.
Transient transfection. It was necessary to culture the isolated cardiomyocytes in serum-free medium to eliminate effects on gene expression mediated through serum response elements. Primary myocardial cultures were first washed with serum-free growth medium and then maintained in serum-free Medium 199 supplemented with Nutridoma HU (Boehringer Mannheim Corporation, Indianapolis, Ind.) which contained human serum albumin, bovine insulin and human transferrin. Transfection were carried out by using a liposome-based transfecting agent, Lipofectamine (Life Technologies, Grand Island, N.Y.). The procedures used for transient transfection were followed as the manufacturer's instructions. The optimal values including DNA concentration, lipofectamine concentration, and time length for tansfection were determined prior to experiments carried out in this study. […]
(§2) For α1-adrenergic stimulation, 100 μM PE (Sigma, St. Louis, Mo.) was added to the cells. […] Chemiluminescent β-galactosidase activity was assayed by using an aliquot of the same cell lysates collected for the luciferase assay and measured in the same luminometer as described below. […]

CaM kinase II = experiment: Autonomous CaM kinase II activity in neonatal rat heart tissue slices; assay type: biochemical; settings: for CaMKII autonomous activation, increase over unstimulated heart tissues: 30 seconds after treatment, DOB 10 μM, ISO 100 μM
Description: FIG. 9 is a bar graph depicting stimulation of CaMKII activity by b1-adrenergic receptor in neonate rat heart tissue. Neonatal (1-4 day old) heart tissue slices were isolated and treated with isoproterenol (ISO, 100 μM), dolbutamine (DOB, 10 μM), or vehicle alone (control). Propanolol (PROP, 20 μM) was added 2 minutes before agonists were added. After 30 seconds of treatment, autonomous CaMKII activity was assayed. Data are shown as percentage of the ratio of calcium independent activity divided by total activity and represented as the mean±SD from at least three experiments.
Determination of autonomous CaM kinase II activity. CaM kinase II autonomous activity was determined in rat heart tissue homogenates using the synthetic peptide substrate, autocamtide-2 (KKALRRQETVDAL) (Mar et al. (1990) Mol. Cell. Biol. 10:4271-4283; and Farrance et al. (1992) J. Biol. Chem. 267:17234-17240) as exogenous substrate. […] Autonomous CaM kinase II activity was assayed by the phosphorylation of autocamtide-2 in the absence of Ca^2+/calmodulin and expressed as a proportion of activity obtained in the presence of these cofactors. Tissue slices were incubated in the presence or absence of various drug compounds for required time. At termination of the incubation the tissue slices were homogenized in ice-cold buffer (20 mM Tris-HCl, pH 7.5, 0.5 mM EGTA, 1.0 mM EDTA, 2.0 mM dithiothreitol, 10 mM sodium pyrophosphate, 0.4 mM ammonium molybdate, […]) by sonication. Supernatant were cleared by centrifugation (12,000×g, 2 minutes) and then assayed in a reaction mixture containing 50 mM PIPES (pH 7.0), 10 mM MgCl2 0.1 mg/ml bovine serum albumin, […], 20 mM [γ-^32P] […] Endogenous protein was sedimented by centrifugation and supernatants containing autocamtide-2 were spotted onto p81 phosphocellulose strips, washed 5 times, dried and ^32P-PO4 content was quantitated by Cerenkov radiation.
These experiments determined whether signaling through β1-adrenergic receptor subtype could activate cardiac CaMKII. […]

ANF promoter = experiment: ANF promoter-reporter (luciferase) activity in transfected cardiomyocytes exposed to agonists; assay type: cell-based, rat
Description: as §1
Transient transfection. It was necessary to culture the isolated cardiomyocytes in serum-free medium to eliminate effects on gene expression mediated through serum response elements. Primary myocardial cultures were first washed with serum-free growth medium and then maintained in serum-free Medium 199 supplemented with Nutridoma HU (Boehringer Mannheim Corporation, Indianapolis, Ind.) which contained human serum albumin, bovine insulin and human transferrin. Transfection were carried out by using a liposome-based transfecting agent, Lipofectamine (Life Technologies, Grand Island, N.Y.). The procedures used for transient transfection were followed as the manufacturer's instructions. The optimal values including DNA concentration, lipofectamine concentration, and time length for tansfection were determined prior to experiments carried out in this study. Briefly, for each transfection, 2 μg DNA and 20 μg lipofectamine were diluted into separate vials containing 300 μl serum-free nutridoma supplemented medium. The two solutions were then combined and incubated at room temperature for 15-45 minutes to allow DNA-liposome complexes to form. For each transfection, 2.4 ml of serum-free nutridoma supplemented medium were added to the tube containing the DNA-liposome complexes and the diluted mixture was overlaid onto the adherent cardiomyocytes that had been rinsed once with 2 ml of serum-free medium in a 60-mm tissue culture plate. The cell cultures were incubated at 37° C. in a C02 incubator containing 5% CO2 for 24 hours, at which time various test compounds were added. Promoter activities from cell extracts were assayed within 48 hours following the start of transfection.
For α1-adrenergic stimulation, 100 μM PE (Sigma, St. Louis, Mo.) was added to the cells. DOB (Gensia Laboratories, Ltd., Irving, Calif.), a selective β1-adrenergic agonist, was added at a concentration of 10 μM. To correct for variation in transfection efficiencies, pβGal-Control was used as an internal control. Chemiluminescent β-galactosidase activity was assayed by using an aliquot of the same cell lysates collected for the luciferase assay and measured in the same luminometer as described below.
Firefly luciferase assay. The firefly luciferase assay is based upon a commercial (Promega, Madison, Wis.) long term “glow” type of bioluminescence assay. Briefly, activation of luciferin results in the formation of an enzyme-bound luciferyl adenylate (luciferyl-AMP). […]

[1] = tested on: skeletal α-actin promoter; experiment: Skeletal α-actin promoter-reporter (luciferase) activity in transfected cardiomyocytes exposed to agonists; assay type: cell-based, rat
Description: as §1
Transient transfection. […] The optimal values including DNA concentration, lipofectamine concentration, and time length for tansfection were determined prior to experiments carried out in this study. […]
as §2

ANF mRNA = experiment: ANF message level by Northern analysis in neonatal cardiocytes; assay type: cell-based, rat
Description: FIG. 10 presents data showing the effects of adrenoceptor agonists on promoter-reporter activities for ANF, skeletal a-actin and cardiac a-actin, and a time course of effects of DOB on ANF message levels. FIGS. 10A, B, and C are bar graphs showing luciferase reporter levels after transfection of ANF, skeletal α-actin, and cardiac a-actin, respectively, into ventricular myocardial cells, and treatment, 24 hours after transfection, with PE (100 μM), DOB (10 μM), or TGF-β1 (1 ng/ml). Values are corrected for transfection efficiency and reported as the mean±SD from at least three experiments. FIG. 10D. Ventricular myocardial cells were switched to serum-free medium. […] 24 hours after incubation, total RNA was extracted and analyzed by Northern blot. […]
Northern Analysis. […] After washing at high stringency (0.1×SSPE, 0.1% SDS, 65° C.), hybridized biotinylated cDNA were detected by using Chemiluminescent Detection System (TROPIX, Inc., Bedford, Mass.) and then exposed to X-ray film. The ANF bands were quantitated with a Howteck gel scanner (PDI, Huntington station, N.Y.) and normalized to the 28 S rRNA signal to correct for loading and/or transfer efficiencies.
Primary cultures of neonatal cardiocytes were kept in serum-free medium and β1 agonist, DOB, was applied to the cells at various times. ANF message RNA was evaluated in the end by northern analysis protocols as described above. […]

[2] = tested on: neonatal rat cardiomyocytes; experiment: AngII- and PE-induced hypertrophy of primary cardiomyocytes (anti-α-actinin staining, cell size and sarcomeric assembly); assay type: cell-based; settings: 72 hr; AngII 10 nM or PE 10 μM
Description: A-F, Primary rat cardiocytes in serum-free medium were stimulated with AngII (10 nM) or PE (10 μm) for 72 hours. Cells were then fixed and stained with anti-α-actinin antibody to reveal sarcomeres and Hoechst stain to reveal nuclei.
To visualize primary cardiomyocytes and their sarcomeric organization, anti-α-actinin mouse monoclonal antibody was used (Sigma). […] Cells were washed in 1×phosphate-buffered saline (PBS), fixed in 3.7% paraformaldehyde for 5 minutes, washed three times with 1×PBS and then pre-blocked in 1×PBS containing 2% horse serum, 2% BSA, and 0.1% non-ionic detergent NP40 for 30 minutes. Anti-α-actinin antibody was added at a dilution of 1:800 in fresh preblock solution and incubated for an additional 30 minutes. Subsequently, the cells were washed three times in 1×PBS with 0.1% NP40. Anti-mouse TRITC-conjugated secondary antibody was then added at a dilution of 1:400 for 30 minutes in pre-block solution and the cells were again washed three times in 1×PBS containing 0.1% NP40. Nuclear staining for DNA was performed with 0.5 μg/ml of bisbenzimide in PBS for 15 minutes followed by three rinses with PBS.

[3] = tested on: tetracycline-controlled transactivator (tTA); experiment: tTA-dependent luciferase target gene expression in primary rat cardiomyocytes; assay type: cell-based
Description: Cardiomyocytes were co-transfected with tTA expression plasmid pUHD15-1 and either a tTA-dependent luciferase construct pUHC13-3 or empty vector as control. 16 hours after transfection, cells were incubated in either medium without doxcycline (DOX) or medium with doxcycline. […] Open circles, empty vector, no DOX; filled circles, empty vector, plus DOX; open triangles, pUHC 13-3, no DOX; filled triangles, pUHC13-3, plus DOX. FIG. 11B is a bar graph depicting the ability of tTA to stimulate transcription of the target gene and the inhibitory effect of doxcycline 12 hours after transfection.
Tetracycline-controlled transactivator (tTA) expression plasmid pUHD15-1 encodes chimeric protein tTA under the control of the human cytomegalovirus (CMV) promoter and enhancer. tTA consists of amino acid residues 1-207 from the tetR protein and residues 363-490 from VP16 (Gossen and Bujard (1992) Proc. Natl. Acad. Sci. USA 89:5547-5551.
Plasmid pUHD10-3 contains a chimeric tet operon/CMV minimal promoter upstream of multiple cloning sites (Bujard, 1996). pUHC13-3 is a firefly luciferase reporter gene expression plasmid driven by the chimeric tet operon/CMV minimal promoter (Gossen and Bujard (1992).
The firefly luciferase gene as a reporter gene was under control of the chimeric tet operon/CMV minimal promoter in pUHC13-3. Transient transfections were carried out as described in Example 3. […]

[4] = DOB 10 μM, added 24 hours after transfection
[5] = PE exposure, construct includes PERE motif

Molecule: CC(CCc1ccc(O)cc1)NCCc1ccc(O)c(O)c1 (stereo not drawn) [DOB, dobutamine]
- decrease of cardiac α-actin promoter-reporter activity (cardiac α-actin promoter; [4]): approximately 50%
- CaMKII autonomous activation, increase over unstimulated heart tissues (CaM kinase II): ~170%
- decrease of ANF promoter-reporter activity (ANF promoter; [4]): approximately 50%
- decrease of skeletal α-actin promoter-reporter activity [1, 4]: approximately 50%
- decline of ANF mRNA compared to control values (ANF mRNA; 24 hours after DOB exposure): 75%
- abundance of ANF message relative to control cultures (ANF mRNA; within 16 hours of DOB exposure, serum-free medium): about half

Molecule: CC(C)NCC(O)c1ccc(O)c(O)c1 (stereo not drawn) [ISO, isoproterenol]
- CaMKII autonomous activation, increase over unstimulated heart tissues (CaM kinase II): ~170%

Molecule: CNC[C@H](O)c1cccc(O)c1 [PE, phenylephrine]
- induction of cardiac α-actin promoter-reporter activity over control cells (cardiac α-actin promoter): not significantly stimulated
- transactivation of ANF reporter activity over control cells (ANF promoter; PE 100 μM): 200%
- activation of ANF50 (NP338) nested deletion promoter-reporter construct (ANF promoter; PE exposure, construct has lost PERE motif): not
- activation of ANF135 (NP325) nested deletion promoter-reporter construct (ANF promoter; [5]): activated
- activation of ANF700 (NP337) nested deletion promoter-reporter construct (ANF promoter; [5]): activated
- transactivation of skeletal α-actin reporter activity over control cells ([1]; PE 100 μM): 200%
- cardiomyocyte size and sarcomeric assembly after exposure to agonist [2]: dramatic increase in size and sarcomeric assembly

Molecule: CC(C)NCC(O)COc1cccc2ccccc12 (stereo not drawn) [PROP, propanolol]
- effect on DOB- or ISO-induced CaMKII autonomous activity (CaM kinase II; PROP 20 μM added prior to agonist): blocked activation

Molecule: C[C@H]1c2cccc(O)c2C(O)=C2C(=O)[C@]3(O)C(O)=C(C(N)=O)C(=O)[C@@H](N(C)C)[C@@H]3[C@@H](O)[C@@H]21 [doxcycline]
- transactivation of the tTA-dependent target gene ([3]; 1 μg/ml after transfection, tTA-transfected cells): markedly repressed
- low level expression of the target gene caused by the treatment itself ([3]; 1 μg/ml, 12 hour post-transfection): ~4 fold

Molecule: TGF-β1: type β-transforming growth factor
- induction of cardiac α-actin promoter-reporter activity over control cells (cardiac α-actin promoter): 700%
